Laboratory results published in patent US6503881B2 (priority 1996, dated 2003).
Read-outs that look alike come from different tables or passages of the source.

Test system: bacteria
[1] = A. calcoaceticus AC002, agarose dilution
[2] = E. cloacae ECL007, agarose dilution
[3] = E. coli ECO005, agarose dilution
[4] = E. faecalis EFS001, agarose dilution
[5] = E. faecalis EFS008, agarose dilution
[6] = K. pneumoniae KP001, agarose dilution
[7] = P. aeruginosa PA004, agarose dilution
[8] = S. aureus SA014, agarose dilution
[9] = S. aureus SA093, agarose dilution
[10] = S. epidermidis SE010, agarose dilution
[11] = S. maltophilia SMA002, agarose dilution
[12] = S. marcescens SMS003, agarose dilution

I L K K I P I I P I R R K [MBI 11A2CN] was tested, and the MIC (A. calcoaceticus AC001) was over 128 µg/mL, the MIC (E. cloacae ECL007) was over 128 µg/mL and the MIC (E. coli ECO003) was over 128 µg/mL. For the same substance, the MIC (E. faecalis EFS002) was over 128 µg/mL, the MIC (E. faecium EFM003) was 16 µg/mL and the MIC (K. pneumoniae KP002) was over 128 µg/mL. The MIC (P. aeruginosa PA004) was over 128 µg/mL, the MIC (S. aureus SA004) was 8 µg/mL and the MIC (S. maltophilia SMA001) was over 128 µg/mL. The MIC (S. marcescens SMS003) was over 128 µg/mL.
In the case of I L K K W P W [MBI 11D10M8], the MIC (E. faecalis EFS002) is reported as 32 µg/mL, the MIC (E. faecium EFM003) is reported as 32 µg/mL and the MIC (S. aureus SA008) is reported as 32 µg/mL.
For I L K K W P W W P W R R K [MBI 11A], the MIC (A. calcoaceticus AC001) was over 64 µg/mL, the MIC (E. cloacae ECL007) was over 64 µg/mL and the MIC (E. coli ECO005) was over 64 µg/mL. For the same substance, the MIC (E. faecalis EFS004) was 32 µg/mL, the MIC (K. pneumoniae KP001) was 64 µg/mL and the MIC (P. aeruginosa PA024) was over 64 µg/mL. The MIC (S. aureus SA002) was 4 µg/mL, the MIC (S. maltophilia SMA002) was over 64 µg/mL and the MIC (S. marcescens SMS003) was over 64 µg/mL.
In the case of I L K K W P W W W R R K [MBI 11G5CN], the MIC (A. calcoaceticus AC002) is reported as 4 µg/mL, the MIC (E. cloacae ECL007) is reported as over 128 µg/mL and the MIC (E. coli ECO003) is reported as 16 µg/mL. It also gave an MIC (E. faecalis EFS002) of 16 µg/mL, an MIC (E. faecium EFM002) of 8 µg/mL and an MIC (K. pneumoniae KP001) of over 128 µg/mL. For the same substance, the MIC (P. aeruginosa PA003) was over 128 µg/mL, the MIC (S. aureus SA012) was 4 µg/mL and the MIC (S. epidermidis SE002) was 2 µg/mL. The MIC (S. maltophilia SMA002) was 64 µg/mL and the MIC (S. marcescens SMS004) was over 128 µg/mL.
I L R W P W W P W R R A [MBI 11H12CN] showed an MIC [1] of 4 µg/mL, an MIC [2] of over 128 µg/mL and an MIC [3] of 16 µg/mL. The MIC [4] was 2 µg/mL, the MIC [5] was 8 µg/mL and the MIC [6] was 16 µg/mL. The MIC [7] was over 128 µg/mL, the MIC [8] was 2 µg/mL and the MIC [9] was 1 µg/mL. It also gave an MIC [10] of 4 µg/mL, an MIC [11] of 64 µg/mL and an MIC [12] of over 128 µg/mL.
In the case of I L K K W P W W P W R R K [MBI 11M8], the MIC (E. faecalis EFS002) is reported as 32 µg/mL, the MIC (E. faecium EFM002) is reported as 32 µg/mL and the MIC (S. aureus SA008) is reported as 32 µg/mL.
I L K K W W W P W R R K [MBI 11G4CN] was tested, and the MIC (A. calcoaceticus AC002) was 4 µg/mL, the MIC (E. cloacae ECL007) was over 128 µg/mL and the MIC (E. coli ECO005) was 32 µg/mL. It also gave an MIC (E. faecalis EFS002) of 32 µg/mL, an MIC (E. faecium EFM003) of 1 µg/mL and an MIC (K. pneumoniae KP001) of over 128 µg/mL. It also gave an MIC (P. aeruginosa PA004) of over 128 µg/mL, an MIC (S. aureus SA004) of 1 µg/mL and an MIC (S. epidermidis SE010) of 2 µg/mL. The MIC (S. maltophilia SMA002) was 64 µg/mL and the MIC (S. marcescens SMS003) was over 128 µg/mL.
With I L R W P W W P W R A K [MBI 11H11CN] the MIC [1] was 4 µg/mL, the MIC [2] was over 128 µg/mL and the MIC [3] was 16 µg/mL. For the same substance, the MIC [4] was 2 µg/mL, the MIC [5] was 8 µg/mL and the MIC [6] was 16 µg/mL. It also gave an MIC [7] of over 128 µg/mL, an MIC [8] of 4 µg/mL and an MIC [9] of 1 µg/mL. The MIC [10] was 4 µg/mL, the MIC [11] was 64 µg/mL and the MIC [12] was over 128 µg/mL.
With I L K K W V W W V W R R K [MBI 11F1CN] the MIC (E. cloacae ECL007) was over 128 µg/mL, the MIC (E. coli ECO003) was 8 µg/mL and the MIC (E. faecalis EFS004) was 16 µg/mL. It also gave an MIC (E. faecium EFM003) of 2 µg/mL, an MIC (K. pneumoniae KP002) of 32 µg/mL and an MIC (P. aeruginosa PA004) of 64 µg/mL. It also gave an MIC (S. aureus SA009) of 2 µg/mL, an MIC (S. marcescens SBSM1) of over 128 µg/mL and an MIC (S. marcescens SMS003) of over 128 µg/mL.
I L K K W P W W P W R R K [MBI 11CNW1] was tested, and the MIC (A. calcoaceticus AC002) was 8 µg/mL, the MIC (E. cloacae ECL007) was 64 µg/mL and the MIC (E. coli ECO005) was 32 µg/mL. The MIC (E. faecalis EFS001) was 8 µg/mL, the MIC (K. pneumoniae KP001) was 32 µg/mL and the MIC (P. aeruginosa PA004) was 64 µg/mL. The MIC (S. aureus SA010) was 4 µg/mL, the MIC (S. maltophilia SMA002) was 32 µg/mL and the MIC (S. marcescens SMS003) was over 128 µg/mL.
W R W W K P K W R W P K W [MBI 11J02CN] gave an MIC [1] of 4 µg/mL, an MIC [2] of 64 µg/mL and an MIC [3] of 4 µg/mL. For the same substance, the MIC [4] was 4 µg/mL, the MIC [5] was 16 µg/mL and the MIC [6] was 4 µg/mL. The MIC [7] was 32 µg/mL, the MIC [8] was 2 µg/mL and the MIC [9] was 1 µg/mL. The MIC [10] was 2 µg/mL, the MIC [11] was 8 µg/mL and the MIC [12] was over 128 µg/mL.
For K R R W V W W V W R L I [MBI 11F4CNR], the MIC (A. calcoaceticus AC002) was 16 µg/mL, the MIC (E. cloacae ECL007) was 32 µg/mL and the MIC (E. coli ECO005) was 32 µg/mL. For the same substance, the MIC (E. faecalis EFS008) was 32 µg/mL, the MIC (K. pneumoniae KP001) was 32 µg/mL and the MIC (P. aeruginosa PA004) was 64 µg/mL. The MIC (S. aureus SA093) was 8 µg/mL, the MIC (S. epidermidis SE010) was 3 µg/mL and the MIC (S. maltophilia SMA002) was 32 µg/mL. It also gave an MIC (S. marcescens SMS003) of over 128 µg/mL.
